Assay [1] deals with serotoninergic 5-HT2A receptor (Homo sapiens, UniProt P28223). The experiment in a line: Binding assay 5-HT2A (h), [3H]ketanserin, HEK-293 cells. As to conditions: read-out: 5-HT2A. Also noted: expressed in transfected cells; host or cells: HEK-293 cells. In outline: (§1)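 Scintillation counting detects receptor-bound radioligand. Compound tested at 1×10^−6 M.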
For assay [2], the target named is T1, serotonine transporter (SERT) receptor (Homo sapiens, UniProt P31645).
T1 construct: expressed in transfected cells; host or cells: CHO cells
T1 sequence (P31645 whole entry): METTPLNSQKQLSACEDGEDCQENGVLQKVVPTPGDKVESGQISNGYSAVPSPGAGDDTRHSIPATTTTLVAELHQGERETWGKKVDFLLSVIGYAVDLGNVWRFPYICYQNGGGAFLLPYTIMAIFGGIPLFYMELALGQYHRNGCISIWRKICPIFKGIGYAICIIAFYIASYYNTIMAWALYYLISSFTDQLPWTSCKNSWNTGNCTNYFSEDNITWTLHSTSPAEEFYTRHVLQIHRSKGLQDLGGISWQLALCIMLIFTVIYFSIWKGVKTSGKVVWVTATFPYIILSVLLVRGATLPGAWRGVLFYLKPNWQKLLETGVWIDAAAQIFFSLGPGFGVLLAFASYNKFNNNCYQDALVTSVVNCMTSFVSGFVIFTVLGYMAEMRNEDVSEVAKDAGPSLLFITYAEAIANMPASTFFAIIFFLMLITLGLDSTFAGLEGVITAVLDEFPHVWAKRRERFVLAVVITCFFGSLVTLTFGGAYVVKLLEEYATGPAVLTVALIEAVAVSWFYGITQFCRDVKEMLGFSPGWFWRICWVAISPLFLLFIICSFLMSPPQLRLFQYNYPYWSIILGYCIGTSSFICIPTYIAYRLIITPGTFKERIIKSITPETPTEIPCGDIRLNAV
Put plainly: Binding assay SERT (h), [3H]imipramine, CHO cells. As to conditions: read-out: SERT [%]. In outline:
as §1

In assay [3] the target is serotoninergic 5-HT6 receptor (Homo sapiens, UniProt P50406). Put plainly: Binding assay 5-HT6 (h), [3H]LSD, CHO cells. Also noted: expressed in transfected cells; host or cells: CHO cells. As to conditions: read-out: 5-HT6. The essentials:
as §1

Another assay deals with dopaminergic D2 receptor (Homo sapiens, UniProt P14416). The experiment in a line: Binding assay D2S (h), [3H]methyl-spiperone, HEK-293 cells. Also noted: expressed in transfected cells; host or cells: HEK-293 cells. As to conditions: read-out: D2 [%]. In outline:
as §1

Another assay concerns adrenergic α1 receptor. The experiment in a line: Binding assay α1 (non-selective), [3H]prazosin, rat cerebral cortex. As to conditions: percent inhibition of control specific binding; compounds tested at 1×10^−6 M. The essentials:
as §1

The target in assay [4] is T2, serotoninergic 5-HT1A receptor (Homo sapiens, UniProt P08908).
T2 sequence (P08908 1-422): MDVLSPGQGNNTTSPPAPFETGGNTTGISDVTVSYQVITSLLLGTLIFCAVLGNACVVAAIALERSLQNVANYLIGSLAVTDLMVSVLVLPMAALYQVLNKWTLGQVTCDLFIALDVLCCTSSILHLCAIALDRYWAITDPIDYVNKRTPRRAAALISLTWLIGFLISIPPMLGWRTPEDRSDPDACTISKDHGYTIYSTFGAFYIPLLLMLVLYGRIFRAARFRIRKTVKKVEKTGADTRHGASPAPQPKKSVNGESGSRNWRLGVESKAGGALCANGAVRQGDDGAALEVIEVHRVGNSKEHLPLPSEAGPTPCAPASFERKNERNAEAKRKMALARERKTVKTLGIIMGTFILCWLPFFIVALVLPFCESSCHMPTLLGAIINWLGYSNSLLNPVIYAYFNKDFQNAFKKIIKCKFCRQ
The experiment in a line: Binding assay 5-HT1A (h), [3H]8-OH-DPAT, HEK-293 cells. Also noted: expressed in transfected cells; host or cells: HEK-293 cells. As to conditions: read-out: 5-HT1A. In outline:
as §1

The target in a further assay is dopaminergic D3 receptor (Homo sapiens, UniProt P35462). Put plainly: Binding assay D3 (h), [3H]methyl-spiperone, CHO cells. As to conditions: read-out: D3 [%]. Set-up: expressed in transfected cells; host or cells: CHO cells. The essentials: as §1
Sequence of dopaminergic D3 receptor (P35462 whole entry): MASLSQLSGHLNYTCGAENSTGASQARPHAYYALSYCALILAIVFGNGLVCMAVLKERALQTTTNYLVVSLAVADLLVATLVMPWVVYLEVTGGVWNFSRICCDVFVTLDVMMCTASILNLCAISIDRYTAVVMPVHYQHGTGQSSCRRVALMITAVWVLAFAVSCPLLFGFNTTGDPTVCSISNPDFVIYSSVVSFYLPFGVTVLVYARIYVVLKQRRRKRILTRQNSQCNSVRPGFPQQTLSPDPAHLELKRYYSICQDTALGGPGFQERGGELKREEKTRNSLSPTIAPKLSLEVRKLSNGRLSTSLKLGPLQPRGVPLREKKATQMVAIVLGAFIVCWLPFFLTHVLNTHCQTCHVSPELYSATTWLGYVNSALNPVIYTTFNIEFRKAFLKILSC
The target of assay [5] is serotoninergic 5-HT7 receptor (Homo sapiens, UniProt P34969). The experiment in a line: Binding assay 5-HT7 (h), [3H]LSD, CHO cells. Set-up: expressed in transfected cells; host or cells: CHO cells. As to conditions: read-out: 5-HT7. In outline:
as §1

Sequence of serotoninergic 5-HT2A receptor (P28223 whole entry): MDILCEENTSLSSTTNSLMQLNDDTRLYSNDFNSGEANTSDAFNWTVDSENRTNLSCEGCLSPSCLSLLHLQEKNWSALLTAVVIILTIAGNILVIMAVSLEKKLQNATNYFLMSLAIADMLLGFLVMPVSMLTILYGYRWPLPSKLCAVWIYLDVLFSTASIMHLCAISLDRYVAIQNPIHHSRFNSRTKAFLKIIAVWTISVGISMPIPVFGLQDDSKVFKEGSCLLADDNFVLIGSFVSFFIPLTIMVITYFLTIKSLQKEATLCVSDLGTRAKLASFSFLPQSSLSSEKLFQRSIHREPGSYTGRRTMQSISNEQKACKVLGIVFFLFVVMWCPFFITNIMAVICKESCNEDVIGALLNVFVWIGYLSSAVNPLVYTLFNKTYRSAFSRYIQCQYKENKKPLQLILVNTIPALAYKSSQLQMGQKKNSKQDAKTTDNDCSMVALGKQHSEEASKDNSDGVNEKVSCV
Sequence of dopaminergic D2 receptor (P14416 1-414 isoform P14416-2): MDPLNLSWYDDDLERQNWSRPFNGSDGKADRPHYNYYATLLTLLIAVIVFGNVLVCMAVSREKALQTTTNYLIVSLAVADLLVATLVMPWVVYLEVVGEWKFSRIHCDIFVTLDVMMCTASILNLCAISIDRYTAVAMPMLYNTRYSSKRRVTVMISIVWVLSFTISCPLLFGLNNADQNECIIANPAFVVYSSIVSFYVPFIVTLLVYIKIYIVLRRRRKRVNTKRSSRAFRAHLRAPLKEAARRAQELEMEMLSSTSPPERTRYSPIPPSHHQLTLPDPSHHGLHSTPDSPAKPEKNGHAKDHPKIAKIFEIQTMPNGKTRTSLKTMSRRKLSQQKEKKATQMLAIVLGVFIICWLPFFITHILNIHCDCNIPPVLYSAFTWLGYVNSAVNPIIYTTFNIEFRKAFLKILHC
Sequence of serotoninergic 5-HT6 receptor (P50406 whole entry): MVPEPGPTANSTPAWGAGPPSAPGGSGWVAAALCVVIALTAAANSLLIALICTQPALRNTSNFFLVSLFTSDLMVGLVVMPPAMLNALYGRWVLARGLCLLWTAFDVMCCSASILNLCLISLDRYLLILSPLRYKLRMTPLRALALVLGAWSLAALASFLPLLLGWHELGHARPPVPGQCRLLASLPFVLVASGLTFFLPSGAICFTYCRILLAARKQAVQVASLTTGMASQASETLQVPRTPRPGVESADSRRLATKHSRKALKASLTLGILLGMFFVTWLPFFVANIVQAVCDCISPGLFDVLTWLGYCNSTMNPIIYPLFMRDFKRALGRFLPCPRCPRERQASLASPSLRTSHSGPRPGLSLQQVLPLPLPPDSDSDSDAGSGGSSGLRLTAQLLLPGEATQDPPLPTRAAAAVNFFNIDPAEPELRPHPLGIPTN
Sequence of serotoninergic 5-HT7 receptor (P34969 whole entry): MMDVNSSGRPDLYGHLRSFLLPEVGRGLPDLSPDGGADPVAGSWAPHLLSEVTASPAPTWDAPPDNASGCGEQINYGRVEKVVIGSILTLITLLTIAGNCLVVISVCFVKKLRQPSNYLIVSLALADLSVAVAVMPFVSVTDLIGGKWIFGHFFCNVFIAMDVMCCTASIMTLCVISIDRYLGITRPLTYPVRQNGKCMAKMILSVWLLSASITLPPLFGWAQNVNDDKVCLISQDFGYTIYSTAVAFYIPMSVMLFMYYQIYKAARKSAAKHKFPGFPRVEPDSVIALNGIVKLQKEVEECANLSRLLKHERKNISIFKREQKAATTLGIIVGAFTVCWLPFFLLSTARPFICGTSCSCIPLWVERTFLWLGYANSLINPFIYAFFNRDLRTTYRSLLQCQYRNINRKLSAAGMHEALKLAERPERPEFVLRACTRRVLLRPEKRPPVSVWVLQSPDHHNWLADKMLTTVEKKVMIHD

In the case of `O=S(=O)(NCCCCN1CCN(c2nsc3ccccc23)CC1)c1ccc(Cl)s1` [Compound 195, N-[4-[4-(1,2-Benzothiazol-3-yl)piperazin-1-yl]butyl]-5-chloro-thiophene-2-sulphonamide], the inhibition at 1 µM in assay [1] is 91%; in assay [2], -3%; in assay [3] it was 60%; on dopaminergic D2 receptor it was 99%; in assay [4], 89%; at dopaminergic D3 receptor, 89%. In addition, in assay [5], the inhibition at 1 µM was 98%. For the same compound, the “α1 [%]” value with adrenergic α1 receptor was 96%.
Turning to `O=C1COc2c(cccc2N2CCN(CCCCNS(=O)(=O)c3cccc(Cl)c3)CC2)N1` [Compound 209, 3-Chloro-N-[4-[4-(3-oxo-4H-1,4-benzoxazin-8-yl)piperazin-1-yl]butyl]benzenesulphonamide], the inhibition at 1 µM is 29% in assay [1]; -1% in assay [2]; 70% in assay [3]; 82% at dopaminergic D2 receptor; 92% in assay [4]; 103% at dopaminergic D3 receptor. Besides, in assay [5], the inhibition at 1 µM worked out at 85%. Also, in the assay on adrenergic α1 receptor, the “α1 [%]” value came out at 90%.
Regarding `O=C1COc2c(cccc2N2CCN(CCCCNS(=O)(=O)c3cccc(F)c3)CC2)N1` [Compound 211, 3-Fluoro-N-[4-[4-(3-oxo-4H-1,4-benzoxazin-8-yl)piperazin-1-yl]butyl]benzenesulphonamide], the inhibition at 1 µM in assay [1] is 32%; in assay [2], 33%; in assay [3], 32%; at dopaminergic D2 receptor, 81%; in assay [4], 86%; at dopaminergic D3 receptor, 102%. In addition, the inhibition at 1 µM in assay [5] was 81%. In the assay on adrenergic α1 receptor, the “α1 [%]” value was 80%.
Turning to `O=S(=O)(NCCCCN1CCN(c2nsc3ccccc23)CC1)c1ccc(F)cc1` [Compound 225, N-[4-[4-(1,2-Benzothiazol-3-yl)piperazin-1-yl]butyl]-4-fluorobenzenesulphonamide], the inhibition at 1 µM in assay [1] was 84%; in assay [2] it was -4%; in assay [3], 74%; at dopaminergic D2 receptor, 77%; in assay [4], 87%; on dopaminergic D3 receptor, 76%. Besides, the inhibition at 1 µM in assay [5] came out at 92%. In the assay with adrenergic α1 receptor, the “α1 [%]” value amounted to 94%.
As to `O=S(=O)(NCCCCN1CCN(c2nsc3ccccc23)CC1)c1ccc(F)c(F)c1` [Compound 226, N-[4-[4-(1,2-Benzothiazol-3-yl)piperazin-1-yl]butyl]-3,4-difluorobenzenesulphonamide], the inhibition at 1 µM in assay [1] was 100%; in assay [2] it was 4%; in assay [3], 78%; at dopaminergic D2 receptor, 87%; in assay [4], 90%; at dopaminergic D3 receptor it was 90%. Besides, the inhibition at 1 µM in assay [5] is 92%. The “α1 [%]” value in the assay on adrenergic α1 receptor is on record as 94%.
With `O=S(=O)(NCCCCN1CCN(c2nsc3ccccc23)CC1)c1ccc(Cl)cc1` [Compound 227, N-[4-[4-(1,2-Benzothiazol-3-yl)piperazin-1-yl]butyl]-4-chlorobenzenesulphonamide], the inhibition at 1 µM came out at 90% in assay [1]; 2% in assay [2]; 76% in assay [3]; 104% at dopaminergic D2 receptor; 89% in assay [4]; 90% on dopaminergic D3 receptor. For the same compound, the inhibition at 1 µM in assay [5] was 94%. In the assay with adrenergic α1 receptor, the “α1 [%]” value turned out to be 92%.
On to `O=S(=O)(NCCCCN1CCN(c2nsc3ccccc23)CC1)c1ccc(Cl)c(Cl)c1` [Compound 228, N-[4-[4-(1,2-Benzothiazol-3-yl)piperazin-1-yl]butyl]-3,4-dichlorobenzenesulphonamide], for which the inhibition at 1 µM in assay [1] came out at 91%; in assay [2], 16%; in assay [3], 87%; at dopaminergic D2 receptor, 103%; in assay [4], 81%; at dopaminergic D3 receptor, 92%. For the same compound, the inhibition at 1 µM in assay [5] amounted to 98%. Besides, the “α1 [%]” value with adrenergic α1 receptor is 92%.
Turning to `O=S(=O)(NCCCCN1CCN(c2nsc3ccccc23)CC1)c1ccc(Br)cc1` [Compound 229, N-[4-[4-(1,2-Benzothiazol-3-yl)piperazin-1-yl]butyl]-4-bromobenzenesulphonamide], the inhibition at 1 µM in assay [1] was 80%; in assay [2], 9%; in assay [3], 75%; on dopaminergic D2 receptor, 101%; in assay [4], 92%; on dopaminergic D3 receptor it was 95%. Also, the inhibition at 1 µM in assay [5] was 89%. Besides, the “α1 [%]” value in the assay with adrenergic α1 receptor was found to be 96%.
Turning to `O=S(=O)(NCCCCN1CCN(c2nsc3ccccc23)CC1)c1cccc(Br)c1` [Compound 230, N-[4-[4-(1,2-Benzothiazol-3-yl)piperazin-1-yl]butyl]-3-bromobenzenesulphonamide], the inhibition at 1 µM in assay [1] was 87%; in assay [2], 13%; in assay [3], 85%; at dopaminergic D2 receptor, 105%; in assay [4], 85%; at dopaminergic D3 receptor, 87%. Moreover, the inhibition at 1 µM in assay [5] came out at 101%. In the assay with adrenergic α1 receptor, the “α1 [%]” value came to 98%.
In the case of `COc1cccc(S(=O)(=O)NCCCCN2CCN(c3nsc4ccccc34)CC2)c1` [Compound 232, N-[4-[4-(1,2-Benzothiazol-3-yl)piperazin-1-yl]butyl]-3-methoxybenzenesulphonamide], the inhibition at 1 µM came to 100% in assay [1]; 13% in assay [2]; 76% in assay [3]; 92% at dopaminergic D2 receptor; 89% in assay [4]; 89% on dopaminergic D3 receptor. In addition, the inhibition at 1 µM in assay [5] is 89%. For the same compound, in the assay on adrenergic α1 receptor, the “α1 [%]” value was 94%.
As to `CC(C)(C)c1ccc(S(=O)(=O)NCCCCN2CCN(c3nsc4ccccc34)CC2)cc1` [Compound 233, N-[4-[4-(1,2-Benzothiazol-3-yl)piperazin-1-yl]butyl]-4-tert-butyl-benzenesulphonamide], the inhibition at 1 µM in assay [1] was determined as 100%; in assay [2], 5%; in assay [3], 76%; on dopaminergic D2 receptor, 83%; in assay [4], 53%; at dopaminergic D3 receptor it was 76%. Besides, the inhibition at 1 µM in assay [5] was determined as 93%. The “α1 [%]” value in the assay with adrenergic α1 receptor is 94%.
In the case of `O=S(=O)(NCCCCN1CCN(c2nsc3ccccc23)CC1)c1ccc(C(F)(F)F)cc1` [Compound 234, N-[4-[4-(1,2-Benzothiazol-3-yl)piperazin-1-yl]butyl]-4-(trifluoromethyl)benzenesulphonamide], the inhibition at 1 µM in assay [1] is 92%; in assay [2], 32%; in assay [3] it was 62%; on dopaminergic D2 receptor, 85%; in assay [4] it was 95%; at dopaminergic D3 receptor it was 91%. Also, the inhibition at 1 µM in assay [5] is 97%. Moreover, the “α1 [%]” value in the assay with adrenergic α1 receptor stood at 91%.

The values above are taken from US8822517B2, “Arylosulfonamides for the treatment of CNS diseases” (Adamed SP. Z O.O., priority 2010, dated 2014).
